In patent US20140343000A1 (priority 2011, published 2014):

System: recombinant NL4-3 virus (Renilla luciferase in nef, Gag P373S; NLRluc) in MT-2 cells
Experiment: whole plant or invertebrate
Assay type: cell-based, HIV
Details: Renilla, NL43, luciferase activity in cells infected for 4-5 days with NLRluc recombinants, serial dilutions of inhibitor; class symbols (key in Table 1); read-out: EC50
Outline: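 Inhibitor potency against the reporter virus comes from reduced luciferase activity in infected MT-2 cells exposed to a dilution series of compound over 4-5 days.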

| SMILES | EC50 [nM] |
| --- | --- |
| C=C(C)[C@@H]1CC[C@]2(NCCNc3ccncc3)CC[C@]3(C)[C@H](CC[C@@H]4[C@@]5(C)CC=C(c6ccc(C(=O)O)cc6)C(C)(C)[C@@H]5CC[C@]43C)[C@@H]12 [Example 190, 4-((1R,3aS,5aR,5bR,7aR,11aS,11bR,13aR,13bR)-5a,5b,8,8,11a-pentamethyl-1-(prop-1-en-2-yl)-3a-(2-(pyridin-4-ylamino)ethylamino)-2,3,3a,4,5,5a,5b,6,7,7a,8,11,11a,11b,12,13,13a,13b-octadecahydro-1H-cyclopenta[a]chrysen-9-yl)benzoic acid] | < 100 |
| C=C(C)[C@@H]1CC[C@]2(NC(=O)N(CCO)CCN(C)C)CC[C@]3(C)[C@H](CC[C@@H]4[C@@]5(C)CC=C(c6ccc(C(=O)O)cc6)C(C)(C)[C@@H]5CC[C@]43C)[C@@H]12 [Example 52, 4-((1R,3aS,5aR,5bR,7aR,11aS,11bR,13aR,13bR)-3a-(3-(2-(dimethylamino)ethyl)-3-(2-hydroxyethyl)ureido)-5a,5b,8,8,11a-pentamethyl-1-(prop-1-en-2-yl)-2,3,3a,4,5,5a,5b,6,7,7a,8,11,11a,11b,12,13,13a,13b-octadecahydro-1H-cyclopenta[a]chrysen-9-yl)benzoic acid] | < 100 |
